Test results from ChEMBL document CHEMBL3813652, “Arabinoamidine synthesis and its inhibition toward β-glucosidase (sweet almonds) in comparison to a library of galactonoamidines” (Bioorg Med Chem, 2016).
Active and inactive are the calls of the source. The calls are words filed in the database; no cut-off is given here.

Tests used:
[1] = Inhibition of sweet almond beta-glucosidase assessed as enzymatic hydrolysis of 2-chloro-4-nitrophenyl beta-D-glucopyranoside preincubated with substrate for 20 mins followed by protein addition by UV-visible spectroscopy; parameters: species or system Prunus dulcis
[2] = Inhibition of sweet almond beta-glucosidase assessed as enzyme mediated hydrolysis of 2-chloro-4-nitrophenyl beta-D-glucopyranoside preincubated with substrate for 30 mins followed by protein addition measured every 10 secs for 10 mins by UV-visible spectroscopy; parameters: species or system Prunus dulcis
Prunus dulcis [3] = assay: Competitive inhibition of sweet almond beta-glucosidase assessed as enzymatic hydrolysis of 2-chloro-4-nitrophenyl beta-D-glucopyranoside at 200 and 1200 uM by Lineweaver-Burk plot
Prunus dulcis [4] = assay: Competitive inhibition of sweet almond beta-glucosidase assessed as enzymatic hydrolysis of 2-chloro-4-nitrophenyl beta-D-glucopyranoside at 0.0125 and 0.025 uM by Lineweaver-Burk plot

Row | Compound | IC50 [1] [µM] | Ki [2] [µM] | inhibition (Prunus dulcis [3]) | inhibition (Prunus dulcis [4])
1 | COc1ccc(C/N=C2\N[C@H](CO)[C@H](O)[C@H](O)[C@H]2O)cc1 | 13 | 55.9 | – | –
2 | CO[C@@H]1[C@H](O)[C@@H](O)C(NCc2ccc(C)cc2)=N[C@@H]1CO | > 5000 | 13 | – | –
3 | Cc1ccc(C/N=C2\N[C@H](CO)[C@H](O)[C@H](O)[C@H]2O)cc1 | 3 | 0.026 | Active | Active
4 | OC[C@H]1N/C(=N\CC2CCCCCC2)[C@H](O)[C@@H](O)[C@H]1O | 5 | 27.1 | – | –
5 | OC[C@H]1N/C(=N\Cc2cccc(F)c2)[C@H](O)[C@@H](O)[C@H]1O | 11 | 124 | – | –
6 | OC[C@H]1N/C(=N\CC2CC2)[C@H](O)[C@@H](O)[C@H]1O | 19 | 11.5 | – | –
7 | CCC/N=C1\N[C@H](CO)[C@H](O)[C@H](O)[C@H]1O | 4.8 | 18.7 | – | –
8 | OC[C@H]1N/C(=N\Cc2ccccc2F)[C@H](O)[C@@H](O)[C@H]1O | 1.8 | 118 | – | –
9 | CC(C)(C)c1ccc(C/N=C2\N[C@H](CO)[C@H](O)[C@H](O)[C@H]2O)cc1 | 2.3 | 14.7 | – | –
10 | OC[C@H]1N/C(=N\Cc2ccc(C(F)(F)F)cc2)[C@H](O)[C@@H](O)[C@H]1O | 2.8 | 87.9 | – | –
11 | OC[C@H]1N/C(=N\C2CC2)[C@H](O)[C@@H](O)[C@H]1O | 32 | 11.8 | – | –
12 | CCCCCCCCCCCC/N=C1\N[C@H](CO)[C@H](O)[C@H](O)[C@H]1O | 0.4 | 20.5 | – | –
13 | CCCCCCC/N=C1\N[C@H](CO)[C@H](O)[C@H](O)[C@H]1O | 2.2 | 29.6 | – | –
14 | Cc1cccc(C/N=C2\N[C@H](CO)[C@H](O)[C@H](O)[C@H]2O)c1 | 5.1 | 293 | – | –
15 | CO[C@H]1C(NCc2ccc(C)cc2)=N[C@H](CO)[C@H](O)[C@@H]1O | > 5000 | 5 | – | –
16 | OC[C@H]1N/C(=N\C2CCCCC2)[C@H](O)[C@@H](O)[C@H]1O | > 5000 | – | – | –
17 | N=C1N[C@H](CO)[C@H](O)[C@H](O)[C@H]1O | > 1000 | – | – | –
18 | OC[C@H]1N/C(=N\Cc2ccc(F)cc2)[C@H](O)[C@@H](O)[C@H]1O | 4.7 | 57.5 | – | –
19 | OC[C@H]1N/C(=N\Cc2ccccc2)[C@H](O)[C@@H](O)[C@H]1O | 2.8 | 108 | – | –
20 | Cc1ccc(CNC2=N[C@H](CO)[C@H](O)[C@H](O)C2)cc1 | > 5000 | 7.7 | – | –
21 | OC[C@H]1N/C(=N\CC2CCCCC2)[C@H](O)[C@@H](O)[C@H]1O | 1.6 | 49.2 | – | –
22 | CCCCC(CC)CNC1=N[C@H](CO)[C@H](O)[C@H](O)[C@H]1O (stereo partly drawn) | 2.5 | 17.2 | – | –
23 | Cc1ccc(CNC2=N[C@H](CO)[C@@H](O)[C@@H]2O)cc1 | 6200 | 970 | Active | Active
24 | O=C1N[C@H](CO)[C@H](O)[C@H](O)[C@H]1O | > 1000 | – | – | –
25 | Cc1ccccc1C/N=C1\N[C@H](CO)[C@H](O)[C@H](O)[C@H]1O | 8.4 | 26.2 | – | –
26 | OC[C@H]1N/C(=N\CCCc2ccccc2)[C@H](O)[C@@H](O)[C@H]1O | 1.3 | 28.1 | – | –
